Source: the supplement of paper PMC10307832

Experiments:
Experiment in all cases: relative viability (nuclei count vs DMSO), 5 days (fraction); higher = more cells survive
NCI-H2347 = tested on: NCI-H2347
In short: (§1)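 Lung cancer cell lines, seeded in 1536-well plates, were treated the following day by pin tool with a single drug or with five library-drug doses (not always all listed) in √10 steps on top of a fixed anchor-drug dose. Cells were fixed and nuclei stained in one step after 5 days, and nuclei were counted. Relative viability is the nuclei count for treated wells divided by that for vehicle wells, reported as medians of duplicate plates.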

LOU-NH91 = tested on: LOU-NH91
In short: as §1

NCI-H2342 = tested on: NCI-H2342
In short: as §1

HCC-15 = tested on: HCC-15
In short: as §1

RERF-LC-KJ = tested on: RERF-LC-KJ
In short: as §1

LXF-289 = tested on: LXF-289
In short: as §1

SW 1573 = tested on: SW 1573
In short: as §1

NCI-H460 = tested on: NCI-H460
In short: as §1

A-427 = tested on: A-427
In short: as §1

NCI-H1915 = tested on: NCI-H1915
In short: as §1

SK-LU-1 = tested on: SK-LU-1
In short: as §1

PC-3 [JPC-3] = tested on: PC-3 [JPC-3]
In short: as §1

NCI-H1755 = tested on: NCI-H1755
In short: as §1

NCI-H1734 = tested on: NCI-H1734
In short: as §1

NCI-H2228 = tested on: NCI-H2228
In short: as §1

NCI-H358 = tested on: NCI-H358
In short: as §1

HOP-62 = tested on: HOP-62
In short: as §1

NCI-H1975 = tested on: NCI-H1975
In short: as §1

NCI-H647 = tested on: NCI-H647
In short: as §1

HCC-78 = tested on: HCC-78
In short: as §1

LC-2-ad = tested on: LC-2-ad
In short: as §1

NCI-H2126 = tested on: NCI-H2126
In short: as §1

CC1(C)CCC(c2ccc(Cl)cc2)=C(CN2CCN(c3ccc(C(=O)NS(=O)(=O)c4ccc(N[C@H](CCN5CCOCC5)CSc5ccccc5)c(S(=O)(=O)C(F)(F)F)c4)cc3)CC2)C1 [Navitoclax] + Cc1cc(Nc2cc(N3CCN(C)CC3)nc(Sc3ccc(NC(=O)C4CC4)cc3)n2)n[nH]1 [Tozasertib] (partner 0.1 µM)
relative viability (NCI-H2347; first compound 0.005 µM): 0.505 | relative viability (NCI-H2347; first compound 0.01581 µM): 0.516 | relative viability (NCI-H2347; first compound 0.1581 µM): 0.614 | relative viability (NCI-H2347; first compound 0.5 µM): 0.668 | relative viability (LOU-NH91; first compound 0.005 µM): 0.667 | relative viability (LOU-NH91; first compound 0.01581 µM): 0.627 | relative viability (LOU-NH91; first compound 0.05 µM): 0.714 | relative viability (LOU-NH91; first compound 0.1581 µM): 0.655 | relative viability (LOU-NH91; first compound 0.5 µM): 0.563 | relative viability (NCI-H2342; first compound 0.005 µM): 0.537 | relative viability (NCI-H2342; first compound 0.01581 µM): 0.471 | relative viability (NCI-H2342; first compound 0.05 µM): 0.558 | relative viability (NCI-H2342; first compound 0.1581 µM): 0.543 | relative viability (NCI-H2342; first compound 0.5 µM): 0.548 | relative viability (HCC-15; first compound 0.005 µM): 0.428 | relative viability (HCC-15; first compound 0.01581 µM): 0.524 | relative viability (HCC-15; first compound 0.05 µM): 0.449 | relative viability (HCC-15; first compound 0.1581 µM): 0.481 | relative viability (HCC-15; first compound 0.5 µM): 0.467 | relative viability (RERF-LC-KJ; first compound 0.005 µM): 0.507 | relative viability (RERF-LC-KJ; first compound 0.01581 µM): 0.369 | relative viability (RERF-LC-KJ; first compound 0.05 µM): 0.536 | relative viability (RERF-LC-KJ; first compound 0.1581 µM): 0.526 | relative viability (RERF-LC-KJ; first compound 0.5 µM): 0.464 | relative viability (LXF-289; first compound 0.005 µM): 0.192 | relative viability (LXF-289; first compound 0.01581 µM): 0.222 | relative viability (LXF-289; first compound 0.05 µM): 0.15 | relative viability (LXF-289; first compound 0.1581 µM): 0.193 | relative viability (LXF-289; first compound 0.5 µM): 0.217 | relative viability (SW 1573; first compound 0.005 µM): 0.186 | relative viability (SW 1573; first compound 0.01581 µM): 0.147 | relative viability (SW 1573; first compound 0.05 µM): 0.173 | relative viability (SW 1573; first compound 0.1581 µM): 0.176 | relative viability (SW 1573; first compound 0.5 µM): 0.103 | relative viability (NCI-H460; first compound 0.005 µM): 0.392 | relative viability (NCI-H460; first compound 0.01581 µM): 0.327 | relative viability (NCI-H460; first compound 0.05 µM): 0.37 | relative viability (NCI-H460; first compound 0.1581 µM): 0.382 | relative viability (NCI-H460; first compound 0.5 µM): 0.397 | relative viability (A-427; first compound 0.005 µM): 0.199 | relative viability (A-427; first compound 0.01581 µM): 0.192 | relative viability (A-427; first compound 0.05 µM): 0.161 | relative viability (A-427; first compound 0.1581 µM): 0.197 | relative viability (A-427; first compound 0.5 µM): 0.213 | relative viability (NCI-H1915; first compound 0.005 µM): 0.42 | relative viability (NCI-H1915; first compound 0.01581 µM): 0.422 | relative viability (NCI-H1915; first compound 0.05 µM): 0.432 | relative viability (NCI-H1915; first compound 0.1581 µM): 0.414 | relative viability (NCI-H1915; first compound 0.5 µM): 0.418 | relative viability (SK-LU-1; first compound 0.005 µM): 0.326 | relative viability (SK-LU-1; first compound 0.01581 µM): 0.324 | relative viability (SK-LU-1; first compound 0.05 µM): 0.308 | relative viability (SK-LU-1; first compound 0.1581 µM): 0.318 | relative viability (SK-LU-1; first compound 0.5 µM): 0.298 | relative viability (PC-3 [JPC-3]; first compound 0.005 µM): 0.846 | relative viability (PC-3 [JPC-3]; first compound 0.01581 µM): 0.892 | relative viability (PC-3 [JPC-3]; first compound 0.05 µM): 0.935 | relative viability (PC-3 [JPC-3]; first compound 0.1581 µM): 0.898 | relative viability (PC-3 [JPC-3]; first compound 0.5 µM): 0.876 | relative viability (NCI-H1755; first compound 0.005 µM): 0.523 | relative viability (NCI-H1755; first compound 0.01581 µM): 0.599 | relative viability (NCI-H1755; first compound 0.05 µM): 0.441 | relative viability (NCI-H1755; first compound 0.1581 µM): 0.453 | relative viability (NCI-H1755; first compound 0.5 µM): 0.527 | relative viability (NCI-H1734; first compound 0.005 µM): 0.253 | relative viability (NCI-H1734; first compound 0.01581 µM): 0.259 | relative viability (NCI-H1734; first compound 0.1581 µM): 0.201 | relative viability (NCI-H1734; first compound 0.5 µM): 0.194 | relative viability (NCI-H2228; first compound 0.005 µM): 0.343 | relative viability (NCI-H2228; first compound 0.01581 µM): 0.296 | relative viability (NCI-H2228; first compound 0.1581 µM): 0.285 | relative viability (NCI-H2228; first compound 0.5 µM): 0.212 | relative viability (NCI-H358; first compound 0.005 µM): 0.1 | relative viability (NCI-H358; first compound 0.01581 µM): 0.0998 | relative viability (NCI-H358; first compound 0.05 µM): 0.105 | relative viability (NCI-H358; first compound 0.1581 µM): 0.122 | relative viability (NCI-H358; first compound 0.5 µM): 0.109 | relative viability (HOP-62; first compound 0.005 µM): 0.389 | relative viability (HOP-62; first compound 0.01581 µM): 0.4 | relative viability (HOP-62; first compound 0.05 µM): 0.366 | relative viability (HOP-62; first compound 0.1581 µM): 0.299 | relative viability (HOP-62; first compound 0.5 µM): 0.374 | relative viability (NCI-H1975; first compound 0.005 µM): 0.791 | relative viability (NCI-H1975; first compound 0.01581 µM): 0.917 | relative viability (NCI-H1975; first compound 0.05 µM): 0.714 | relative viability (NCI-H1975; first compound 0.1581 µM): 0.734 | relative viability (NCI-H1975; first compound 0.5 µM): 0.815 | relative viability (NCI-H647; first compound 0.005 µM): 0.301 | relative viability (NCI-H647; first compound 0.01581 µM): 0.268 | relative viability (NCI-H647; first compound 0.05 µM): 0.292 | relative viability (NCI-H647; first compound 0.1581 µM): 0.27 | relative viability (NCI-H647; first compound 0.5 µM): 0.251 | relative viability (HCC-78; first compound 0.005 µM): 0.403 | relative viability (HCC-78; first compound 0.01581 µM): 0.594 | relative viability (HCC-78; first compound 0.1581 µM): 0.584 | relative viability (HCC-78; first compound 0.5 µM): 0.428 | relative viability (LC-2-ad; first compound 0.005 µM): 0.455 | relative viability (LC-2-ad; first compound 0.01581 µM): 0.544 | relative viability (LC-2-ad; first compound 0.05 µM): 0.546 | relative viability (LC-2-ad; first compound 0.1581 µM): 0.507 | relative viability (LC-2-ad; first compound 0.5 µM): 0.343 | relative viability (NCI-H2126; first compound 0.005 µM): 0.817 | relative viability (NCI-H2126; first compound 0.01581 µM): 0.906 | relative viability (NCI-H2126; first compound 0.05 µM): 0.858 | relative viability (NCI-H2126; first compound 0.1581 µM): 0.823 | relative viability (NCI-H2126; first compound 0.5 µM): 0.749
